Data from patent US8163894B2, “DNA for eukaryotic expression of CymR” (National Research Council of Canada, priority 2001, dated 2012).
Read-outs that look alike come from different tables or passages of the source.

Assays:
[1] = tested on: CymR-mediated expression (P2-cymlacZ fusion system); assay: Induction of expression in the P2-cymlacZ fusion system by candidate effectors; format: cell-based, Pseudomonas putida
From the text: The need to solubilize p-cumate (p-cumic acid) in organic solvent (e.g. ethanol or dimethyl formamide) is a great disadvantage. The present invention thus provides water-soluble effectors as well as possibly expanding the spectrum of inducers beyond p-cumate. At first, cumic alcohol, 4-methyl benzylalcohol, ethyltoluene, indole-2-carboxylic acid, indole-3-carboxylic acid, benzoic acid, 3- and 4-hydroxybenzoic acids, 3,4-dihyroxybenzoic acid and 2,4-dihydrobenzoic acid were tried. […] In this P2-cymlacZ fusion system, the threshold cumate concentration for induction is in the order of 0.002 millimolar (mM).
The sodium salt of cumic acid was also tested vs cumic acid (taken as cumate).
Both sodium benzoate and sodium toluate are ineffective.

[2] = tested on: 293 CuO-GFP clone 13; assay: Testing of cumate analogues as effector molecule (FIG. 16); format: cell-based
From the text: Of course cumate can be substituted for various cumate analogues also referred to as effector molecule as described before.
The Deposits were received by the authority on Apr. 10, 2002, and were given accession number IDA-100402-1 and IDA-100402-2, respectively. 293 CuO-GFP clone 13 was also deposited on Apr. 10, 2002 in the same IDA and was given accession number IDA-100401-3.

[3] = target: CymR-VP16 transactivator in HeLa cells (Pseudomonas putida, UniProt O33453); assay: Cumate switch strategy 1: transient co-transfection, β-gal, HeLa cells; format: cell-based
Method: Transient transfections in 293 and HeLa cells were carried out using the calcium phosphate technique. One (1) ml of DNA-calcium phosphate precipitate contained 5 μg reporter, 250 ng activator/repressor (unless mentioned otherwise) and 3 μg seap in a total of 10 μg DNA. This was divided equally between two 60 mm plates, each containing 10^6 293 cells. One of the two plates received in addition 200 μg/ml cumate. Transient transfections in BMAD78-42 were carried out using Geneporter™ according to manufacturers directions. Briefly, 3 μg DNA (2 μg reporter, 25 ng transactivator and 0.5 μg seap) in 500 μl DMEM was added to 6×10^5 BMAd78-42 cells in DMEM. After 3 h 1 ml DMEM supplemented with 20% serum was added to the plates. […]
Measurement of Seap and β-gal activity Seap activity was measured in 50 μl of cell culture medium by adding 50 μl of 2× seap buffer (1M diethanolamine PH 9.8, 2 mM MgCl2, 10 mM 1-homoarginine and 20 mM p-nitrophenyl phosphate, disodium, hexahydrate Sigma 104 phosphatase substrate) and incubating at room temperature. OD405 was read using a plate reader at different intervals. This information was used to ensure that the enzyme activity was measured under conditions where the substrate was in excess. β-galactosidase activity was measured in transfected cell extracts. […] OD420 was measured at regular intervals until the reaction appeared to plateau. […]

[4] = tested on: CHO-cTA clones (cumate transactivator); assay: Adenoviral infection of CHO-cTA clones, total GFP fluorescence by flow cytometry; format: cell-based
Method: 1×10^6 CHO cells were transfected with 5 μg of pMPG-cTA-tk-neo-nls using 12 μl of LIPOFECTAMINE 2000 according to the instructions of the manufacturer. 1200 μg/ml G418 was added to the growth medium 48 h after transfection to select a pool of G418-resistant cells. Individual clones (CHO-cTA) were isolated from this pool by the method of limiting dilution.
CHO-cTA clones were infected with AdCMV5GFPq or AdCR5GFPq at MOIs of 100, 300 and 900 in the presence or absence of 200 μg/ml cumate. Forty-eight hours post-infection, cells were fixed in 2% paraformaldehyde in PBS. Total GFP fluorescence of the infected population was measured using an EPICS-XL flow cytometer (Coulter).

[5] = tested on: 293-CymR clones; assay: Infection of 293-CymR clones with AdCMV5-Og-LacZ, β-galactosidase activity; format: cell-based; conditions: 200 μg/ml cumate
Method: 1×10^6 293 cells were transfected with 10 μg of pCymR/tk-neo by the calcium phosphate technique. 400 μg/ml G418 was added to the growth medium 48 h after transfection to select a pool of G418-resistant cells. Individual clones (293-CymR) were isolated from this pool by the method of limiting dilution.
293CymR clones were infected with AdCMV5-Og-LacZ in the presence and absence of 200 μg/ml cumate. β-galactosidase activity was measured 48 h post-infection.

[6] = target: T1, CymR repressor in 293 cells (Pseudomonas putida, UniProt O33453); assay: Strategy 2: CymR-mediated repression of CMV5-operator LacZ reporters, transient transfection in 293 cells; format: cell-based
T1 construct: expressed in transfected cells; host or cells: 293 cells

[7] = tested on: 293-CuO-GFPq13# cells; assay: GFP expression from stably integrated pAdCMV5-CuO-GFPq in 293-CuO-GFPq13#; format: cell-based
Method: 1×10^6 293-CymR clone 21 were transfected with 10 μg of pAdCMV5-CuO-GFPq. GFP expression was induced by the addition of 200 μg/ml cumate and individual GFP positive cells were picked by Quixell™ (Caron, A. W., et al., Methods in cell science 22: 137-145, 2000).
293-CuO-GFPq13# were cultured in the presence and absence of cumate for 48 h. Photographs were taken using an inverted fluorescence microscope (Leica, Wetzlar, Germany). […] In the OFF state (FIG. 15B) only two GFP-positive cells are visible in the microscopic field.
Total GFP fluorescence was measured in the ON (9255) and OFF (3.75) states using an EPICS-XL flow cytometer (Coulter). The ON/OFF ratio for this clone was […].

[8] = tested on: mammalian cells; assay: Effect of cumate on morphology, growth and toxicity in mammalian cells; format: cell-based
[9] = tested on: 293-CymR clone 21; format: cell-based; conditions: 200 μg/ml cumate, 48 h post-transfection
[10] = target: CymR-VP16 transactivator in BMAdE1/78-42 cells (Pseudomonas putida, UniProt O33453); format: cell-based
Method: Measurement of Seap and β-gal activity Seap activity was measured in 50 μl of cell culture medium by adding 50 μl of 2× seap buffer (1M diethanolamine PH 9.8, 2 mM MgCl2, 10 mM 1-homoarginine and 20 mM p-nitrophenyl phosphate, disodium, hexahydrate Sigma 104 phosphatase substrate) and incubating at room temperature. OD405 was read using a plate reader at different intervals. This information was used to ensure that the enzyme activity was measured under conditions where the substrate was in excess. β-galactosidase activity was measured in transfected cell extracts. Cells were lysed 48 h post-transfection by three freeze-thaw cycles in 0.25M Tris.Hcl pH8. The cell lysate was centrifuged at 14,000×g and enzyme (β-galactosidase) activity was measured in the supernatant (cell extract) using a colorimetric assay containing 1 mM MgCl2, 0.9 mg/ml ONPG, and 66 mM sodium phosphate (pH 7.5). […] OD420 was measured at regular intervals until the reaction appeared to plateau. […]

[11] = tested on: cumate activator (rAd vectors); assay: Co-infection with recombinant adenoviral reporter and activator viruses
[12] = tested on: 293-CymR cells; format: cell-based; conditions: 293-CymR infected with rAd expressing VSVg
[13] = target: CymR-VP16 transactivator in 293 cells (Pseudomonas putida, UniProt O33453); format: cell-based
Method: Transient transfections in 293 and HeLa cells were carried out using the calcium phosphate technique. One (1) ml of DNA-calcium phosphate precipitate contained 5 μg reporter, 250 ng activator/repressor (unless mentioned otherwise) and 3 μg seap in a total of 10 μg DNA. This was divided equally between two 60 mm plates, each containing 10^6 293 cells. One of the two plates received in addition 200 μg/ml cumate. Transient transfections in BMAD78-42 were carried out using Geneporter™ according to manufacturers directions. Briefly, 3 μg DNA (2 μg reporter, 25 ng transactivator and 0.5 μg seap) in 500 μl DMEM was added to 6×10^5 BMAd78-42 cells in DMEM. After 3 h 1 ml DMEM supplemented with 20% serum was added to the plates. Half the samples received DMEM supplemented with 20% serum and 400 μg/ml cumate.
Measurement of Seap and β-gal activity Seap activity was measured in 50 μl of cell culture medium by adding 50 μl of 2× seap buffer (1M diethanolamine PH 9.8, 2 mM MgCl2, 10 mM 1-homoarginine and 20 mM p-nitrophenyl phosphate, disodium, hexahydrate Sigma 104 phosphatase substrate) and incubating at room temperature. OD405 was read using a plate reader at different intervals. This information was used to ensure that the enzyme activity was measured under conditions where the substrate was in excess. β-galactosidase activity was measured in transfected cell extracts. Cells were lysed 48 h post-transfection by three freeze-thaw cycles in 0.25M Tris.Hcl pH8. The cell lysate was centrifuged at 14,000×g and enzyme (β-galactosidase) activity was measured in the supernatant (cell extract) using a colorimetric assay containing 1 mM MgCl2, 0.9 mg/ml ONPG, and 66 mM sodium phosphate (pH 7.5). Reactions were incubated at 37° C. until a faint yellow color had developed. OD420 was measured at regular intervals until the reaction appeared to plateau. To measure low level activity (basal activity in the absence of transactivation) a chemiluminescent substrate was used. The reaction was performed using a kit from Roche diagnostics according to the instructions of the manufacturer.
To test the system, reporter and activator constructs as described in Example I above, were co-transfected into 293 cells by the calcium-phosphate technique. A plasmid carrying the secreted alkaline phosphatase coding sequence under the control of a constitutive promoter was included in all transfections and seap activity in the cell culture medium was used to normalize for transfection efficiency.

[14] = Water solubility of effectors; format: physicochemical

T1 sequence (O33453 whole entry): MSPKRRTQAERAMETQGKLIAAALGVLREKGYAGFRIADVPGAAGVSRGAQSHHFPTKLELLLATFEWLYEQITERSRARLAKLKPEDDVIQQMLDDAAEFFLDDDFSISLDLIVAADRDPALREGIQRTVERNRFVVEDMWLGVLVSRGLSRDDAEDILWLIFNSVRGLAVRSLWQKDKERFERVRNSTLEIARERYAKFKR
Chain of CymR-VP16 transactivator in 293 cells (O33453 whole entry, added parts left off): as the sequence (O33453 whole entry) above
Chain of CymR-VP16 transactivator in BMAdE1/78-42 cells (O33453 whole entry, added parts left off): as the sequence (O33453 whole entry) above
Chain of CymR-VP16 transactivator in HeLa cells (O33453 whole entry, added parts left off): as the sequence (O33453 whole entry) above

Compound: O=C(O)c1ccc(O)c(O)c1 [3,4-dihyroxybenzoic acid]
- ability to act as inducer [1]: none of these compounds could act as effective inducers

Compound: O=C(O)c1cccc(O)c1 [3-hydroxybenzoic acid, 3- and 4-hydroxybenzoic acids]
- ability to act as inducer [1]: none of these compounds could act as effective inducers

Compound: Cc1ccc(CO)cc1 [4-methyl benzylalcohol]
- ability to act as inducer [1]: none of these compounds could act as effective inducers

Compound: CCCc1ccc(C(=O)O)cc1 [C4, p-Propylbenzoic acid]
- activity as activator (effector molecule) [2]: good activators

Compound: CC(C)Cc1ccc(C(=O)O)cc1 [C6, p-isobutylbenzoic acid]
- activity as activator (effector molecule) [2]: good activators

Compound: CN(C)c1ccc(C(=O)O)cc1 [C11, p-N-dimethylaminobenzoic acid]
- activity as activator (effector molecule) [2]: good activators

Compound: CCNc1ccc(C(=O)O)cc1 [C13, p-N-ethylaminobenzoic acid]
- activity as activator (effector molecule) [2]: good activators

Compound: CN(C)c1ccc(C(=O)O)cc1 [DM PABA, Di-methyl p-aminobenzoic acid]
- ability to act as inducer ([1]; 0.02 mM): effective inducers
- ability to act as inducer ([1]; 0.1 mM): just as good an inducer as parent cumate

Compound: CCc1ccc(C(=O)[O-])cc1.[Na+] [Na^+ 4-ethylbenzoate]
- ability to act as inducer [1]: acts as an inducer
- response compared with parental cumate [1]: not as good as the parental cumate

Compound: O=C(O)c1ccccc1 [benzoic acid, Benzoic acid]
- ability to act as inducer [1]: none of these compounds could act as effective inducers

Compound: CC(C)c1ccc(C(=O)O)cc1 [cumate, cumic acid]
- decrease in activation by the transactivator on addition of cumate ([3]; pAdcTA1(+nls)): 9.4 fold
- reduction in activation on addition of cumate ([3]; pAdcTA1(−nls)): 34 fold
- threshold cumate concentration for induction ([1]; P2-cymlacZ fusion system): ~0.002 mM
- GFP expression over mock infected cells after addition of cumate ([4]; AdCR5-GFPq MOI 100, 200 μg/ml cumate): 2 fold
- GFP expression over mock infected cells after addition of cumate ([4]; AdCR5-GFPq MOI 300, 200 μg/ml cumate): 4.5 fold
- GFP expression over mock infected cells after addition of cumate ([4]; AdCR5-GFPq MOI 900, 200 μg/ml cumate): 20.6 fold
- ON/OFF ratio (β-gal with vs without cumate) ([5]; 293-CymR clone 21, AdCMV5-Og-LacZ): 19
- ON/OFF ratio (β-gal with vs without cumate) ([5]; 293-CymR clone 22, AdCMV5-Og-LacZ): 16
- ON/OFF ratio (β-gal with vs without cumate) ([5]; 293-CymR clone 23, AdCMV5-Og-LacZ): 7.6
- activity of the unrepressed state recovered on addition of cumate ([6]; nls-containing repressor, pAdCMV5-Og-LacZ): 61%
- relief of repression on addition of cumate ([6]; nls-containing repressor, pAdCMV5-Os-LacZ): relieved the repression completely
- relief of repression on addition of cumate ([6]; pAdCymR, both pAdCMV5-Os-LacZ and pAdCMV5-Og-LacZ): relieved the repression totally
- cells positive for GFP expression in the presence of cumate ([7]; 48 h culture): 100%
- ON/OFF ratio of total GFP fluorescence ([7]; clone 293-CuO-GFPq13#): 246
- Total GFP fluorescence, ON state ([7]; with cumate, flow cytometer): 9255
- effects on morphology or growth rates ([8]; 200 μg/ml cumate in media, 4 weeks): No visible effects
- toxicity to mammalian cells ([8]; concentrations that effectively regulate gene expression): does not appear to be toxic
- VSVg expression on addition of cumate (western) [9]: clearly evident
- reduction of activation on addition of cumate ([10]; BMAdE1/78-42, pAdcTA1(+nls)): 3.9 fold
- reduction in activation on addition of cumate ([10]; BMAdE1/78-42, pAdcTA1(−nls)): 22 fold
- share of the increase obliterated by addition of cumate ([11]; reporter moi 10, activator moi 0.1): 95%
- share of the increase obliterated by addition of cumate ([11]; reporter moi 10, activator moi 1): 98%
- induction of VSVg and syncitia formation on addition of cumate [12]: induces the expression of VSVg
- reduction of activation on addition of cumate ([13]; pAdCR5LacZ + pAdcTA1(+nls), 200 μg/ml cumate): 78%
- reduction of activation on addition of cumate ([13]; pAdcTA1(−nls), 50 μg/ml cumate): 86%
- reduction of activation on addition of cumate ([13]; pAdcTA1(−nls), 100 μg/ml cumate): 87%
- reduction of activation on addition of cumate ([13]; pAdcTA1(−nls), 200 μg/ml cumate): 89%
- activity as activator (effector molecule) [2]: good activators

Compound: CC(C)c1ccc(CO)cc1 [cumic alcohol]
- ability to act as inducer [1]: none of these compounds could act as effective inducers

Compound: O=C(O)c1cc2ccccc2[nH]1 [indole-2-carboxylic acid]
- ability to act as inducer [1]: none of these compounds could act as effective inducers

Compound: O=C(O)c1c[nH]c2ccccc12 [indole-3-carboxylic acid]
- ability to act as inducer [1]: none of these compounds could act as effective inducers

Compound: O=C([O-])c1ccccc1.[Na+] [sodium benzoate]
- ability to act as inducer [1]: ineffective

Compound: CC(C)c1ccc(C(=O)[O-])cc1.[Na+] [sodium salt of cumic acid]
- threshold of concentration giving a response, vs cumic acid [1]: did not change appreciably
- water solubility [14]: water-soluble

Compound: Na^+ trimethyl cumate
- response compared with parental cumate [1]: not as good as the parental cumate
- ability to act as inducer ([1]; 0.1 mM): effective inducer

Compound: ethyltoluene
- ability to act as inducer [1]: none of these compounds could act as effective inducers

Compound: sodium toluate
- ability to act as inducer [1]: ineffective
